Experimental data as given in patent US6821983B2, “5-(9-acridinylamino)-toluidine compounds” (Academia Sinica, priority 2003, dated 2004).
Where a name gives a salt, the structure may show the parent alone.

How the values were obtained:
[1] = system: CCRF-CEM human lymphoblastic leukemic cells and its drug-resistant sublines; test: Growth inhibition of CCRF-CEM cells and drug-resistant sublines (XTT-tetrazolium assay, 72 h); type: cell-based; details: for IC50 values compared with tested known 9-anilinoacridine compounds: CCRF-CEM and drug-resistant sublines, 72 h, as the trihydrochloride salt or free amine compounds; for cross-resistance with vinblastine or taxol: CCRF-CEM drug-resistant sublines
Protocol: (§1) Cytotoxicity Assays. The effects of the compounds on cell growth were determined in CCRF-CEM human lymphoblastic leukemic cells and its drug-resistant sublines in a 72 h incubation, by XTT-tetrazolium assay, as described by Scudiero et al. (Cancer Res. 1988, 48, 4827-4833). After the addition of phenazine methosulfate-XTT solution at 37° C. for 6 h, absorbance at 450 and 630 nm was detected on a microplate reader (EL 340; Bio-Tek Instruments Inc., Winooski, Vt.). Six to seven concentrations of each compound were used. The IC50 and dose-effect relationships of the compounds for antitumor activity were calculated by a median-effect plot (Chou et al. Adv. Enzyme Regul. 1984, 22, 27-55) using a computer program on an IBM-PC workstation (Chou et al. Dose-Effect Analysis with Microcomputers: Quantitation of ED50, LD50, Synergism, Antagonism, Low-Dose Risk, Receptor-Ligands Binding and Enzyme Kinetics; Biosoft: Cambridge, U.K., 1987).

[2] = system: human breast tumor MX-1 xenograft; test: Chemotherapeutic efficacy in nude mice bearing human breast tumor MX-1 xenograft; type: in vivo; details: i.v., dosages of 10 mg/Kg or higher
Protocol: In vivo assay. Athymic nude mice bearing the nu/nu gene were used for human breast tumor MX-1 xenograft. Outbred Swiss-background mice were obtained from Charies River Breeding Laboratories. Male mice 8 weeks old or older weighing 22 g or more were used for most experiments. Drug was administrated via the tail vein by i.v. injection. Tumor volumes were assessed by measuring length x width x height (or width) by using caliper. Vehicle used was 20 μl DMSO in 180 μl saline. All animal studies were conducted in accordance with the guidelines of the National Institutes of Health Guide for the Care and Use of Animals and the protocol approved by the Memorial Sloan-Kettering Cancer Center's Institutional Animal Care and Use Committee.

human tumor cell lines = test: Inhibition of human tumor cell growth in culture (XTT-tetrazolium cytotoxicity assay, 72 h); type: cell-based; details: five human tumor cell lines, 72 h incubation; for IC50 values compared with tested known 9-anilinoacridine antitumor compounds: for at least one cell line
Protocol: as §1, with “all” for “CCRF-CEM”, “tumor” for “lymphoblastic leukemic”, “cells (i.e. colon HT-29, nasopharyngeal carcinoma HONE-1” for “cells”, “BM-1, hepatoma Hepa-G2, breast carcinoma MX-1, gastric carcinoma TSGH, brain tumor DBTRG, oral carcinoma KB, breast carcinoma MCF-7 and MX-1, and T-cell acute lymphocytic leukemia CCRF-CEM),” for “its drug-resistant sublines”

## Cc1ccc(N)cc1Nc1c2cccc(C)c2nc2c(C(=O)NCCN(C)C)cccc12 [Compound 2, 3-[9-(4-dimethylaminoethylcarboxamido-5-methyl)acridinylamino)-p-toluidine hydrochloride]
[1]
  IC50 values compared with tested known 9-anilinoacridine compounds: lower than tested known 9-anilinoacridine compounds
  cross-resistance with vinblastine or taxol: not cross-resistant
[2]
  reducing tumor volume: about 80%
  toxicity to the host: very low toxicity
Human tumor cell lines
  largest difference in IC50 versus one of the tested known compounds: 18 fold
  IC50 values compared with tested known 9-anilinoacridine antitumor compounds: lower than those of tested known 9-anilinoacridine antitumor compounds

## Cc1ccc(Nc2c3cccc(C)c3nc3c(C(=O)NCCN(C)C)cccc23)cc1N (as salt: HCl) [Compound 3, 5-[9-(4-dimethylaminoethylcarboxamido-5-methyl)acridinylamino)-p-toluidine hydrochloride]
other
  melting point: 245 to 246 °C

## Cc1ccc(Nc2c3cccc(C)c3nc3c(C(=O)NCCN(C)C)cccc23)cc1N [Compound 3, 5-[9-(4-dimethylaminoethylcarboxamido-5-methyl)acridinylamino)-p-toluidine hydrochloride]
Human tumor cell lines
  IC50 values compared with tested known 9-anilinoacridine antitumor compounds: lower than those of tested known 9-anilinoacridine antitumor compounds

## {3-[4-(2-dimethylamino ethylcarbamoyl)-5-methyl-acridin-9-ylamino]-2-methyl-phenyl}-carbamic acid ethyl ester [Compound 5]
Human tumor cell lines
  IC50 values compared with tested known 9-anilinoacridine antitumor compounds: lower than those of tested known 9-anilinoacridine antitumor compounds

## CCOC(=O)Nc1cc(Nc2c3cccc(C)c3nc3c(C(=O)NCCN(C)C)cccc23)ccc1C [Compound 6]
other
  melting point: 131 to 132 °C
Human tumor cell lines
  IC50 values compared with tested known 9-anilinoacridine antitumor compounds: lower than those of tested known 9-anilinoacridine antitumor compounds

## Cc1cc(N)cc(Nc2c3cccc(C)c3nc3c(C(=O)NCCN(C)C)cccc23)c1 [Compound 1, 5-[9-(4-dimethylaminoethylcarboxamido-5-methyl)acridinylamino]-m-toluidine hydrochloride]
[1]
  IC50 values compared with tested known 9-anilinoacridine compounds: lower than tested known 9-anilinoacridine compounds
  cross-resistance with vinblastine or taxol: not cross-resistant
[2]
  reducing tumor volume: about 80%
  toxicity to the host: very low toxicity
Human tumor cell lines
  IC50 values compared with tested known 9-anilinoacridine antitumor compounds: lower than those of tested known 9-anilinoacridine antitumor compounds

## Cc1cc(N)cc(Nc2c3ccccc3nc3ccccc23)c1 (as salt: HCl) [Compound 10, 5-(9-acridinylamino)-m-toluidine]
other
  melting point: > 280 °C (dec.)
